Source: ChEMBL document CHEMBL1201862, “PubChem BioAssay data set” (2004)
The source made the active and inactive calls.

Assays:
[1] = target: T1, Sentrin-specific protease 1 (Homo sapiens, UniProt Q9P0U3); assay: SENP1 catalytic domain blockers, concentration series – biochemical, kinetic FRET, dose response (AID 651697); format: functional; conditions: read-out: IC50_Mean
T1 sequence (Q9P0U3 whole entry): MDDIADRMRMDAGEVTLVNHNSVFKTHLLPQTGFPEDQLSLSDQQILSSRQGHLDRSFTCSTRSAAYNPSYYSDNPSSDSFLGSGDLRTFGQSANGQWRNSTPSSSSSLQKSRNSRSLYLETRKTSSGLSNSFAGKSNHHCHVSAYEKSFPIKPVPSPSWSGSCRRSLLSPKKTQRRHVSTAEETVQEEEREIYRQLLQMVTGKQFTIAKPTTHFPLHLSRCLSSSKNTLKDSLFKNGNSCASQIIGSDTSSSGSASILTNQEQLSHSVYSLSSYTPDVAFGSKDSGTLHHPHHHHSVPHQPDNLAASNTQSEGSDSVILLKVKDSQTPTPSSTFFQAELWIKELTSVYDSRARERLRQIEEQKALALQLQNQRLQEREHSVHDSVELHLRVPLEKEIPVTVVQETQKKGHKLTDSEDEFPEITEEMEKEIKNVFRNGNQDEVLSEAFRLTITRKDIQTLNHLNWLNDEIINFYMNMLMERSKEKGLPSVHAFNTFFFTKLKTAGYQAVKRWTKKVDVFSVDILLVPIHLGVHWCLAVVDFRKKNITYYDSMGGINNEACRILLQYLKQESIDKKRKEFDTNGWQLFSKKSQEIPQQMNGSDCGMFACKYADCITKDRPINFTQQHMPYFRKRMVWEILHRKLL

[2] = target: T1, Sentrin-specific protease 1; assay: Dose response confirmation of small molecule inhibitors of the catalytic domain of the SUMO protease, SENP1 in a FRET assay.; format: functional; conditions: read-out: IC50_Mean
[3] = tested on: HEK293; assay: membrane integrity loss in HEK cells – cell-based, fluorescence, cytotoxicity control for IDE activator project, dose response (AID 588440); format: functional; conditions: Homo sapiens;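 further: cytotoxicity by LDH release measuring loss of membrane integrity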
[4] = target: Nonstructural protein 1 (Influenza A virus, UniProt Q194T2); format: functional, Influenza A virus (A/California/07/2009(H1N1))
Chain of Nonstructural protein 1 (Q194T2 whole entry): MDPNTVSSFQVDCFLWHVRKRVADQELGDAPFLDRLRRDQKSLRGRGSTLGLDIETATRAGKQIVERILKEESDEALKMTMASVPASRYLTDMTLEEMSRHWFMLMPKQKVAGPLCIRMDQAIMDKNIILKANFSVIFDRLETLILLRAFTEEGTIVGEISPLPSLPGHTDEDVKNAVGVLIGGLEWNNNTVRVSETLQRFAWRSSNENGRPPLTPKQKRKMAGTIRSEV

[5] = target: T2, Insulin-degrading enzyme (Homo sapiens, UniProt P14735); assay: cellular IDE activation of Abeta substrate cleavage – fluorescence polarization, HEK cells, dose response (AID 588439); format: functional, cell-based
T2 sequence (P14735 whole entry): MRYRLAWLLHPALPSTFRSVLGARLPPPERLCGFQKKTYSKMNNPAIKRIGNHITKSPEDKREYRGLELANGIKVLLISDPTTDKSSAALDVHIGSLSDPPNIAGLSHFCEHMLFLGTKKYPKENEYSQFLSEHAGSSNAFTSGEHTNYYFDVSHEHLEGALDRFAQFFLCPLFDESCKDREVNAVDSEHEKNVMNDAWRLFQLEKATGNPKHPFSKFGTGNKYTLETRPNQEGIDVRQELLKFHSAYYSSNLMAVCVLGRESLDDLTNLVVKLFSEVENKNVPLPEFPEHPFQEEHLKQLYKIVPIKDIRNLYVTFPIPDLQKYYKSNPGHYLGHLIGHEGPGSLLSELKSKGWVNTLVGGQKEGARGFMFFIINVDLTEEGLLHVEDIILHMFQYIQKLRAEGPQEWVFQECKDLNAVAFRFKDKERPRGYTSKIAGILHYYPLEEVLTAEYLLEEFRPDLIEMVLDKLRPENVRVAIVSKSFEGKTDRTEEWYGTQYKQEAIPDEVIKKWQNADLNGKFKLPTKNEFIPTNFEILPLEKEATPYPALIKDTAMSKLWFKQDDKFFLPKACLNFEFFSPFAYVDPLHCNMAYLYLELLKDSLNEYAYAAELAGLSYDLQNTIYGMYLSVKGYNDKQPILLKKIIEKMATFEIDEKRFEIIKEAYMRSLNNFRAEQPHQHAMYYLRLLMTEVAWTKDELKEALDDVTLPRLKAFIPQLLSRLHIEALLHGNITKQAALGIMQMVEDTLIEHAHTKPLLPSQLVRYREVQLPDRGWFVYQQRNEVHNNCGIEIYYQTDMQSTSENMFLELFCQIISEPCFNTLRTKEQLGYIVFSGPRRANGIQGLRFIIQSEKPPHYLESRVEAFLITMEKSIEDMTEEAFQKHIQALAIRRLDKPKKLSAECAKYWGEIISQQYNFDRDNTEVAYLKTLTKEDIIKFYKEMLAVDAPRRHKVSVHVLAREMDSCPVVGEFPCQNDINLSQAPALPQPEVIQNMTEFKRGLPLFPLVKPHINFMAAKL

[6] = target: T2, Insulin-degrading enzyme; assay: recombinant IDE activation, cell-free – biochemical, fluorescence polarization, counter-screen for IDE activator project, dose response (AID 588681)
[7] = tested on: HEK293; assay: optical interference in Abeta FP readout, dose response, artefact control for IDE activator project, biochemical, fluorescence polarization (AID 588442); format: functional, cell-based; conditions: Homo sapiens
[8] = bead-based luminescence quenchers, dual-tagged ARNT – biochemical, AlphaScreen, cherry-pick, artefact control for ARNT-TACC3 interaction inhibitor project, dose response (AID 651705); format: functional;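 further: AlphaScreen bead proximity signal that flags compounds interfering with the detection technology; potency reflects signal decrease which marks the compound as an assay artifact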
[9] = target: T3, Low molecular weight phosphotyrosine protein phosphatase (Homo sapiens, UniProt P24666); format: functional; conditions: read-out: IC50_Mean
T3 sequence (P24666 whole entry): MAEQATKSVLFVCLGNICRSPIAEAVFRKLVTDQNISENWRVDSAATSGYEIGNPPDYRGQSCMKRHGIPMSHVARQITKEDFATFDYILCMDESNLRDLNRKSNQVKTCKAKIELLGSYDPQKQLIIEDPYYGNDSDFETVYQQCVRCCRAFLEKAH

[10] = target: T3, Low molecular weight phosphotyrosine protein phosphatase; format: functional; conditions: read-out: IC50_Mean; remark: listed apart in the source
[11] = target: Cytochrome P450 2D6 (Homo sapiens, UniProt P10635);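 further: CYP2D6 member of a cytochrome P450 panel assay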
Chain of Cytochrome P450 2D6 (P10635 whole entry): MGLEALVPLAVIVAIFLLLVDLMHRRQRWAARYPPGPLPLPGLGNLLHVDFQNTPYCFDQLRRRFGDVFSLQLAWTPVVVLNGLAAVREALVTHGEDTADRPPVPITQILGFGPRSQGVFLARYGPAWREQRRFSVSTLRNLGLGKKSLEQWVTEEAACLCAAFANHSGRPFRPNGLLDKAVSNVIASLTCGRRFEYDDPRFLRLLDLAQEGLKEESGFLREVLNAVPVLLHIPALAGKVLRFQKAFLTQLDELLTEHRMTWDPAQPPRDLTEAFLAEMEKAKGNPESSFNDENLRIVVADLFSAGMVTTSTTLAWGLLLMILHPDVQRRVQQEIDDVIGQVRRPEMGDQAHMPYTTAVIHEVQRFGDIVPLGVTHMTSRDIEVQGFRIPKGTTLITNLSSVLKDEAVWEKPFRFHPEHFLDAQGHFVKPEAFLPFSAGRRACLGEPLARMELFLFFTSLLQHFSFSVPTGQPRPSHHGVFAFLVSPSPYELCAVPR

For `NC(=S)c1cc2cc(Br)ccc2oc1=O`, the IC50 [1] was 5.2 µM (active) and the IC50 [2] was 3.31 µM (active).

For `O=C(O)c1ccc(N=Nc2c(O)ccc3ncccc23)cc1`, the IC50 [3] was > 89.2 µM (inactive), the IC50 [4] was 3.07 µM (active) and the EC50 [5] was 7.38 µM (active). For the same compound, the EC50 [6] was 6.69 µM (active) and the EC50 [7] was 30.9 µM (inactive).

In the case of `Cc1cccc(C(=O)Nc2nnc(C3=COCCO3)o2)c1`, the AC50 [8] is reported as 128 µM (active).

In the case of `O=C(OCCNc1nc(-c2ccccc2)nc2ccccc12)c1cccnc1`, the IC50 [9] is reported as 7.51 µM (active) and the IC50 [10] is reported as 23.1 µM (inactive).

For `Cc1c(CCO)c(=O)n(-c2ccccc2)n1S(=O)(=O)c1c(Cl)cc(Cl)cc1Cl`, the AC50 [8] was 76.8 µM (active) and the AC50 [11] was 7.94 µM (inconclusive).
